Structures can show the parent of a compound that is named as a salt.
Molecular target: recombinant human MAPKAP-K2 (Homo sapiens, UniProt P49137)
Experiment: Inhibitory activity against MAPKAP-K2 enzyme (33P-ATP peptide phosphorylation)
Assay type: biochemical
Settings: recombinant human MAPKAP-K2, ATP 20 μmol/L solution, room temperature 30 min; read-out: Activity Strength (MAPKAP-K2 IC50 value)
Description: General Measurement Method for Determining the Inhibitory Activity Against MAPKAP-K2 enzyme
(Preparation of Solutions of Compounds)
Each compound was dissolved in DMSO to prepare a solution with a concentration of 20 mmol/L and this solution was stored at −20° C. This stock solution was diluted with DMSO successively to prepare solutions with 200-fold concentrations of a necessary range. These solutions were further diluted with water at a ratio of 1:20 to prepare solutions with 10-fold concentrations of a necessary range. Each of these solutions (5 μL) was used for each reaction in 50 μL-scale. Through the dilution series of all compounds, the final DMSO concentration was kept at 0.5%. Conventional tests for the compounds were carried out at a final concentration range from 100 μmol/L to 0.03 μmol/L. but in some cases, tests were carried out at lower concentrations, depending on activity.
(Measurements of MAPKAP-K2 Enzyme Activities)
To a 5% DMSO aqueous solution (5 μL) of a test compound, a solution (25 μL) containing a peptide substrate [peptide substrate 60 μmol/L, ATP 20 μmol/L, Tris buffer 60 mmol/L (pH 7.5), EGTA 0.2 mmol/L, β-mercaptoethanol 0.2%, magnesium acetate 20 mmol/L, [γ-33P]ATP 0.1 μCi (specific radioactivity ca. 110 TBq/mmol)] was added. The reaction was initiated by adding a solution (20 μL) containing MAPKAP-K2 enzyme [recombinant human MAPKAP-K2 10 mU, Tris buffer […] (pH 7.5), EGTA 0.1 mmol/L, β-mercaptoethanol 0.1%, BSA 0.1%]. After the reaction was carried out at room temperature for 30 min, 200 mmol/L phosphoric acid (50 μL) was added to quench the reaction, and 90 μL of the reaction mixture was adsorbed on a multiscreen PH plate (Millipore). The plate was washed with 100 mmol/L phosphoric acid. After the plate was dried, 30 μL of MicroScint-O (Perkin-Elmer) was added, and the count per minute was measured on a scintillation counter to determine the inhibitory activity. The peptide substrate was Lys-Lys-Leu-Asn-Arg-Thr-Leu-Ser-Val-Ala.
• % Reference=(X−B)/(Tot−B)×100 • % Inhibition=100−% Reference • X represents count per minute of the well with a test compound applied. • B represents count per minute of the well without the enzyme. • Tot represents count per minute of the well with only DMSO solvent and no test compound applied. (Calculation of MAPKAP-K2 Inhibitory Activity) • IC50 value represents a concentration of compound at which 50% inhibition is observed.

Chain of recombinant human MAPKAP-K2 (P49137 whole entry): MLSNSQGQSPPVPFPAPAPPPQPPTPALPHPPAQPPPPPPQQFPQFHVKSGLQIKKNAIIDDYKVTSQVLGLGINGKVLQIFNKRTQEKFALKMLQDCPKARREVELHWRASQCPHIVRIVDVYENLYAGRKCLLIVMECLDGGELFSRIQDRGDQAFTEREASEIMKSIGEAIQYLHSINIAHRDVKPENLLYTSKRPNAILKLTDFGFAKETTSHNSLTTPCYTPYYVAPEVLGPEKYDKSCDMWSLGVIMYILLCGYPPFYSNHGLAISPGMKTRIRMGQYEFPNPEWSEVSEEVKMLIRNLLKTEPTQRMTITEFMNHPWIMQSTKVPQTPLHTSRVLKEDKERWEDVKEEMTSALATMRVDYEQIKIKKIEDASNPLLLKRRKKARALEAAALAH

| Structure (SMILES) | IC50 [nM] |
| --- | --- |
| CCOc1ccc(Nc2c(CCO)c(N[C@H]3CCCNC3)c(C#N)c3ccnn23)cc1 [Compound 90, 5-[(3S)-3-Piperidylamino]-7-(4-ethoxyphenylamino)-6-(2-hydroxyethyl)pyrazolo[1,5-a]pyridine-4-carbonitrile] | < 200 |
| COCCOc1ccc(Nc2c(C)c(N[C@H]3CC[C@H](N)CC3)c(C#N)c3ccnn23)cc1 [Compound 89, 5-(trans-4-Aminocyclohexylamino)-7-[4-(2-methoxyethoxy)phenylamino]-6-methylpyrazolo[1,5-a]pyridine-4-carbonitrile trifluoroacetate salt] | < 200 |
| CCOc1ccc(Nc2c(C)c(N[C@H]3CC[C@H](NCc4ccccc4)CC3)c(C#N)c3ccnn23)cc1 [Compound 115, 7-[(4-Ethoxyphenyl)amino]-6-methyl-5-[trans-{4-(benzylamino)cyclohexyl]amino}pyrazolo[1,5-a]pyridine-4-carbonitrile trifluoroacetate salt] | 200 to 1000 |
| CCOc1ccc(Nc2c(C)c(N[C@H]3CC[C@H](N)CC3)c(C#N)c3ccnn23)cc1 [Compound 102, 5-[(trans-4-Aminocyclohexyl)amino]-7-(4-ethoxyphenylamino)-6-methylpyrazolo[1,5-a]pyridine-4-carbonitrile trifluoroacetate salt] | < 200 |
| CCOc1ccc(Nc2c(C(C)C)c(N[C@H]3CCCNC3)c(C#N)c3ccnn23)cc1 [Compound 123, 5-[(3S)-3-Piperidylamino]-7-(4-ethoxyphenylamino)-6-(methylethyl)pyrazolo[1,5-a]pyridine-4-carbonitrile] | < 200 |
| CCOc1ccc(Nc2cc(N[C@H]3CCCNC3)c(C#N)c3ccnn23)cc1 [Compound 92, 5-[(3S)-3-Piperidylamino]-7-(4-ethoxyphenylamino)pyrazolo[1,5-a]pyridine-4-carbonitrile trifluoroacetate salt] | 200 to 1000 |
| Cc1nc2ccc(Nc3cc(N[C@H]4CC[C@H](N)CC4)c(C#N)c4ccnn34)cc2s1 [Compound 96, 5-(trans-4-Aminocyclohexylamino)-7-(2-methylbenzothiazol-6-ylamino)pyrazolo[1,5-a]pyridine-4-carbonitrile trifluoroacetate salt] | 200 to 1000 |
| Cc1nc2ccc(Nc3c(C)c(N[C@H]4CCCNC4)c(C#N)c4ccnn34)cc2s1 [Compound 91, 5-[(3S)-3-Piperidylamino]-7-(2-methylbenzothiazol-6-ylamino)-6-methylpyrazolo[1,5-a]pyridine-4-carbonitrile] | < 200 |
| CCOc1ccc(Nc2c(C)c(NCC3CCCCN3)c(C#N)c3ccnn23)cc1 (stereo not drawn) [Compound 119, 7-[(4-Ethoxyphenyl)amino]-6-methyl-5-[(2-piperidylmethyl)amino]pylrazolo[1,5-a]pyridine-4-carbonitrile trifluoroacetate salt] | 1000 to 10000 |
| CCOc1ccc(Nc2c(C)c(N[C@H]3CC[C@H](NCC4CCCCC4)CC3)c(C#N)c3ccnn23)cc1 [Compound 126, 5-({4-[(Cyclohexylmethyl)amino]cyclohexyl}amino)-7-[(4-ethoxyphenyl)amino]-6-methylpyrazolo[1,5-a]pyridine-4-carbonitrile trifluoroacetate salt] | 200 to 1000 |
| N#Cc1c(N[C@H]2CC[C@H](N)CC2)cc(Nc2ccccc2Cl)n2nccc12 [Compound 94, 5-(trans-4-Aminocyclohexylamino)-7-(2-chlorophenylamino)pyrazolo[1,5-a]pyridine-4-carbonitrile trifluoroacetate salt] | 200 to 1000 |
| CCOc1ccc(Nc2c(C)c(NCC3CCNC3)c(C#N)c3ccnn23)cc1 (stereo not drawn) [Compound 112, 7-[(4-Ethoxyphenyl)amino]-6-methyl-5-[(pyrrolidin-3-ylmethyl)amino]pyarzolo[1,5-a]pyridine-4-carbonitrile trifluoroacetate salt] | 1000 to 10000 |
| CCOc1ccc(Nc2c(C)c(N[C@H]3CC[C@H](NCCCc4ccccc4)CC3)c(C#N)c3ccnn23)cc1 [Compound 116, 7-[(4-Ethoxyphenyl)amino]-6-methyl-5-({trans-4-[(3-phenylpropyl)amino]cyclohexyl}amino)pyrazolo[1,5-a]pyridine-4-carbonitrile trifluoroacetate salt] | 200 to 1000 |
| CCOc1ccc(Nc2c(C)c(N[C@H]3CCCNC3)c(C#N)c3ccnn23)cc1 [Compound 85, 5-[(3S)-3-piperidylamino]-7-(4-ethoxyphenylamino)-6-methylpyrazolo[1,5-a]pyridine-4-carbonitrile] | < 200 |

Continued, values first:

| IC50 [nM] | Structure (SMILES) |
| --- | --- |
| 200 to 1000 | N#Cc1c(N[C@H]2CCCNC2)cc(Nc2ccc(-c3ccccc3)cc2)n2nccc12 [Compound 100, 5-[(3S)-3-Piperidylamino]-7-(4-biphenylylamino)pyrazolo[1,5-a]pyridine-4-carbonitrile trifluoroacetate salt] |
| < 200 | CCCc1c(N[C@H]2CCCNC2)c(C#N)c2ccnn2c1Nc1ccc(OCC)cc1 [Compound 121, 5-[(3S)-3-Piperidylamino]-7-(4-ethoxyphenylamino)-6-propylpyrazolo[1,5-a]pyridine-4-carbonitrile] |
| < 200 | C=CCc1c(N[C@H]2CCCNC2)c(C#N)c2ccnn2c1Nc1ccc(OCC)cc1 [Compound 86, 5-[(3S)-3-Piperidylamino]-7-(4-ethoxyphenylamino)-6-(2-propenyl)pyrazolo[1,5-a]pyridine-4-carbonitrile trifluoroacetate salt] |
| < 200 | CCOc1ccc(Nc2c(C3CC3)c(N[C@H]3CC[C@H](N)CC3)c(C#N)c3ccnn23)cc1 [Compound 131, 5-(trans-4-Amionocyclohexylamino)-7-(4-ethoxyphenylamino)-6-cyclopropylpyrazolo[1,5-a]pyridine-4-carbonitrile] |
| 200 to 1000 | COc1ccccc1Nc1cc(N[C@H]2CC[C@H](N)CC2)c(C#N)c2ccnn12 [Compound 98, 5-(trans-4-Aminocyclohexylamino)-7-(2-methoxyphenylamino)pyrazolo[1,5-a]pyridine-4-carbonitrile trifluoroacetate salt] |
| < 200 | CCOc1ccc(Nc2c(C(C)C)c(N[C@H]3CC[C@H](N)CC3)c(C#N)c3ccnn23)cc1 [Compound 124, 5-(trans-4-Aminocyclohexylamino)-7-(4-ethoxyphenylamino)-6-(methylethyl)pyrazolo[1,5-a]pyridine-4-carbonitrile] |
| 1000 to 10000 | CCOc1ccc(Nc2c(C)c(NC3CNCc4ccccc43)c(C#N)c3ccnn23)cc1 (stereo not drawn) [Compound 127, 7-[(4-Ethoxyphenyl)amino]-6-methyl-5-[4-(1,2,3,4-tetrahydroisoquinolyl)amino]pyrazolo[1,5-a]pyridine-4-carbonitrile trifluoroacetate salt] |
| 10000 to 100000 | CCOc1ccc(Nc2c(C)c(NCCC3CCCN3C)c(C#N)c3ccnn23)cc1 (stereo not drawn) [Compound 133, 7-[(4-Ethoxyphenyl)amino]-6-methyl-5-{[2-(1-methylpyrrolidin-2-yl)ethyl]amino}pyrazolo[1,5-a]pyridine-4-carbonitrile trifluoroacetate salt] |
| < 200 | N#Cc1c(N[C@H]2CC[C@H](N)CC2)cc(Nc2ccc(-c3ccccc3)cc2)n2nccc12 [Compound 97, 5-(trans-4-Aminocyclohexylamino)-7-(4-biphenylylamino)pyrazolo[1,5-a]pyridine-4-carbonitrile trifluoroacetate salt] |
| 10000 to 100000 | CCOc1ccc(Nc2c(C)c(NCCC3CCCCN3)c(C#N)c3ccnn23)cc1 (stereo not drawn) [Compound 113, 7-[(4-Ethoxyphenyl)amino]-6-methyl-5-[(2-(2-piperidyl)ethyl)amino]pyrazolo[1,5-a]pyridine-4-carbonitrile trifluoroacetate salt] |
| 200 to 1000 | CCOc1ccc(Nc2c(C)c(NCCCCN)c(C#N)c3ccnn23)cc1 [Compound 108, 5-[(4-Aminobutyl)amino]-7-[(4-ethoxyphenyl)amino]-6-methylpyrazolo[1,5-a]pyridine-4-carbonitrile trifluoroacetate salt] |
| 200 to 1000 | N#Cc1c(N[C@H]2CCCNC2)cc(Nc2ccccc2Cl)n2nccc12 [Compound 93, 5-[(3S)-3-Piperidylamino]-7-(2-chlorophenylamino)pyrazolo[1,5-a]pyridine-4-carbonitrile trifluoroacetate salt] |
| < 200 | COCCOc1ccc(Nc2c(C)c(N[C@H]3CCCNC3)c(C#N)c3ccnn23)cc1 [Compound 87, 5-[(3S)-3-Piperidylamino]-7-[4-(2-methoxyethoxy)phenylamino]-6-methylpyrazolo[1,5-a]pyridine-4-carbonitrile trifluoroacetate salt] |
